The target of one experiment is Beta-lactamase L1 (Stenotrophomonas maltophilia, UniProt P52700). Kind of experiment: Inhibition of Stenotrophomonas maltophilia L1 metallo beta lactamase.
Experiment [1] concerns the target Beta-lactamase L1 (Stenotrophomonas maltophilia) (UniProt P52700). Kind of experiment: Inhibition of Stenotrophomonas maltophilia L1 metallo beta lactamase at 200 uM.

In general, Ki refers to the dissociation constant of the complex between target and ligand, obtained from inhibition or displacement. Higher therefore signals a looser hold on the target. As a reminder, the inhibition is the percentage by which the read-out fell short of the control. Read a high inhibition as a strong effect.

Sequence of Beta-lactamase L1 (P52700 whole entry): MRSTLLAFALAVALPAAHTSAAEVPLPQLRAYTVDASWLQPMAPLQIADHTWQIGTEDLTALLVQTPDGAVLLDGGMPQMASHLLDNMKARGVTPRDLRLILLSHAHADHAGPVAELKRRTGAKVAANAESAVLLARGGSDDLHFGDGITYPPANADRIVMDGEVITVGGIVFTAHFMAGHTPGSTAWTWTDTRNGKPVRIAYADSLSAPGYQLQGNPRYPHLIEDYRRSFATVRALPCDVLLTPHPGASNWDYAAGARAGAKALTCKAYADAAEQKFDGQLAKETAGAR
Sequence of Beta-lactamase L1 (Stenotrophomonas maltophilia) (P52700 34-290 limits assumed): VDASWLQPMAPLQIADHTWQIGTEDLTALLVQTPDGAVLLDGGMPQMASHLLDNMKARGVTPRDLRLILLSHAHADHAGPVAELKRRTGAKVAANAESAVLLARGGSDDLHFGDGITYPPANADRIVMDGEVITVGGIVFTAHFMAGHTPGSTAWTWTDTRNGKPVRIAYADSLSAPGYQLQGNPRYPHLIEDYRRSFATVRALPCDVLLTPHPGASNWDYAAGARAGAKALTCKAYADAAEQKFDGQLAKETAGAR

With `Cc1cc(C(=O)NC(CCS)C(=O)N[C@H](Cc2ccccc2)C(=O)O)cc(C)c1O` (stereo partly specified), the Ki at Beta-lactamase L1 is 540 nM. In experiment [1], the inhibition worked out at 81%.

In the case of `O=C(Cc1cccc([N+](=O)[O-])c1)NC(CCS)C(=O)N[C@H](Cc1ccccc1)C(=O)O` (stereo partly specified), affinity on Beta-lactamase L1 was put at a Ki of 1030 nM. This compound also came in with an inhibition in experiment [1] of 81%.

At Beta-lactamase L1, `O=C(NC(CCS)C(=O)N[C@H](Cc1ccccc1)C(=O)O)c1cc2ccccc2[nH]1` (stereo partly specified) returned a Ki of 290 nM. The compound also showed an inhibition in experiment [1] of 81%.

As for `C[Si](C)(C)CCC(=O)NC(CCS)C(=O)N[C@H](Cc1ccccc1)C(=O)O` (stereo partly specified), the affinity at Beta-lactamase L1 corresponds to a Ki of 520 nM. Further, the inhibition in experiment [1] worked out at 81%.

In the case of `O=C(NC(CCS)C(=O)N[C@H](Cc1ccccc1)C(=O)O)c1cc2cc(O)ccc2[nH]1` (stereo partly specified), on Beta-lactamase L1, the inhibition constant Ki was 570 nM. The compound further displayed an inhibition in experiment [1] of 81%.

`O=C(NC(CCS)C(=O)N[C@H](Cc1ccccc1)C(=O)O)c1ccc(-c2ccccc2[N+](=O)[O-])o1` (stereo partly specified) returned a Ki on Beta-lactamase L1 of 160 nM. This compound yielded an inhibition in experiment [1] of 81%.

`O=C(Cc1ccc(Br)cc1)NC(CCS)C(=O)N[C@H](Cc1ccccc1)C(=O)O` (stereo partly specified) gave a Ki on Beta-lactamase L1 of 350 nM. The inhibition in experiment [1] was 81%.

As to `O=C(Cc1cc([N+](=O)[O-])ccc1Cl)NC(CCS)C(=O)N[C@H](Cc1ccccc1)C(=O)O` (stereo partly specified), the affinity on Beta-lactamase L1, expressed as Ki, was 780 nM. This compound also came in with an inhibition in experiment [1] of 81%.

`O=C(NC(CCS)C(=O)N[C@H](Cc1ccccc1)C(=O)O)c1cc2cc(F)ccc2[nH]1` (stereo partly specified) gave a Ki on Beta-lactamase L1 of 12 nM. Also, the inhibition in experiment [1] was 81%.

In the case of `O=C(NC(CCS)C(=O)N[C@H](Cc1ccccc1)C(=O)O)c1cc2cc(Cl)ccc2[nH]1` (stereo partly specified), the affinity on Beta-lactamase L1, expressed as Ki, was 200 nM. This compound also returned an inhibition in experiment [1] of 81%.

Compound `O=C(NC(CCS)C(=O)N[C@H](Cc1ccccc1)C(=O)O)c1cc2cccc([N+](=O)[O-])c2[nH]1` (stereo partly specified) returned an inhibition constant Ki at Beta-lactamase L1 of 150 nM. The compound also yielded an inhibition in experiment [1] of 81%.

In the case of `O=C(CCC1CCCCC1)NC(CCS)C(=O)N[C@H](Cc1ccccc1)C(=O)O` (stereo partly specified), affinity at Beta-lactamase L1 was put at a Ki of 780 nM. Besides, the inhibition in experiment [1] was determined as 81%.

With `CC(=O)Nc1ccc(CC(=O)NC(CCS)C(=O)N[C@H](Cc2ccccc2)C(=O)O)cc1[N+](=O)[O-]` (stereo partly specified), on Beta-lactamase L1, the Ki was 390 nM. Also, the inhibition in experiment [1] was determined as 81%.

For the compound `O=C(COc1cccc2ccccc12)NC(CCS)C(=O)N[C@H](Cc1ccccc1)C(=O)O` (stereo partly specified), affinity on Beta-lactamase L1 was put at a Ki of 290 nM. The compound further registered an inhibition in experiment [1] of 81%.

In the case of `CCCCc1ccc(C(=O)NC(CCS)C(=O)N[C@H](Cc2ccccc2)C(=O)O)nc1` (stereo in doubt; 91), the Ki on Beta-lactamase L1 amounted to 230 nM.

As for `Cc1cc(C(=O)NC(CCS)C(=O)N[C@H](Cc2ccccc2)C(=O)O)cc(C)c1OCc1ccccc1` (stereo partly specified), the Ki on Beta-lactamase L1 stood at 200 nM. The same compound displayed an inhibition in experiment [1] of 81%.

The values above are taken from ChEMBL document CHEMBL1146889, “Homo-cysteinyl peptide inhibitors of the L1 metallo-beta-lactamase, and SAR as determined by combinatorial library synthesis” (Bioorg Med Chem Lett, 2006).
